The results in this text go back to article PMC8880564, “Design, Synthesis, and Biological Evaluation of a Novel VEGFR-2 Inhibitor Based on a 1,2,5-Oxadiazole-2-Oxide Scaffold with MAPK Signaling Pathway Inhibition” (Pharmaceuticals, 2022).

Common to all, as to experiment: NCI-60 one-dose SRB screening
Holding throughout (type): cell-based

The subject of experiment [1] is UACC-62. As to conditions: Homo sapiens, UACC-62, Melanoma, 10 µM one dose, 48 h, read-out: growth percentage.
The subject of experiment [2] is MDA-MB-435. As to conditions: Homo sapiens, MDA-MB-435, Melanoma, 10 µM one dose, 48 h, read-out: growth percentage.
In experiment [3] the test system is PC-3. The settings on record: Homo sapiens, PC-3, Prostate Cancer, 10 µM one dose, 48 h, read-out: growth percentage.
Experiment [4] relates to OVCAR-3. The settings on record: Homo sapiens, OVCAR-3, Ovarian Cancer, 10 µM one dose, 48 h, read-out: growth percentage.
For experiment [5], the system named is SK-OV-3. As to conditions: Homo sapiens, SK-OV-3, Ovarian Cancer, 10 µM one dose, 48 h, read-out: growth percentage.
Experiment [6] concerns CCRF-CEM. The settings on record: Homo sapiens, Leukemia, 10 µM one dose, 48 h, read-out: growth percentage.
Experiment [7] deals with EKVX. The settings on record: Homo sapiens, Non-Small Cell Lung Cancer, 10 µM one dose, 48 h, read-out: growth percentage.
Experiment [8] concerns LOX IMVI. The settings on record: Homo sapiens, Melanoma, 10 µM one dose, 48 h, read-out: growth percentage.
In experiment [9] the test system is HCC-2998. As to conditions: Homo sapiens, HCC-2998, Colon Cancer, 10 µM one dose, 48 h, read-out: growth percentage.
Experiment [10] concerns HCT-15. The settings on record: Homo sapiens, HCT-15, Colon Cancer, 10 µM one dose, 48 h, read-out: growth percentage.
Experiment [11] deals with IGROV1. As to conditions: Homo sapiens, IGROV-1, IGROV1, Ovarian Cancer, 10 µM one dose, 48 h, read-out: growth percentage.
Experiment [12] deals with K-562. The settings on record: Homo sapiens, K562, K-562, Leukemia, 10 µM one dose, 48 h, read-out: growth percentage.
The test system of experiment [13] is NCI-H23. The settings on record: Homo sapiens, NCI-H23, Non-Small Cell Lung Cancer, 10 µM one dose, 48 h, read-out: growth percentage.
Experiment [14] concerns SR. The settings on record: Homo sapiens, Leukemia, 10 µM one dose, 48 h, read-out: growth percentage.
Experiment [15] deals with MDA-MB-231/ATCC. The settings on record: Homo sapiens, Breast Cancer, 10 µM one dose, 48 h, read-out: growth percentage.
Experiment [16] relates to COLO 205. As to conditions: Homo sapiens, COLO 205, Colon Cancer, 10 µM one dose, 48 h, read-out: growth percentage.
Experiment [17] concerns BT-549. The settings on record: Homo sapiens, BT-549, Breast Cancer, 10 µM one dose, 48 h, read-out: growth percentage.
The subject of experiment [18] is T-47D. As to conditions: Homo sapiens, T47D, Breast Cancer, 10 µM one dose, 48 h, read-out: growth percentage.
Experiment [19] relates to KM12. The settings on record: Homo sapiens, KM12, Colon Cancer, 10 µM one dose, 48 h, read-out: growth percentage.
Experiment [20] deals with OVCAR-4. The settings on record: Homo sapiens, OVCAR-4, Ovarian Cancer, 10 µM one dose, 48 h, read-out: growth percentage.
Experiment [21] deals with ACHN. The settings on record: Homo sapiens, Renal Cancer, 10 µM one dose, 48 h, read-out: growth percentage.
For experiment [22], the system named is A498. The settings on record: Homo sapiens, A498, Renal Cancer, 10 µM one dose, 48 h, read-out: growth percentage.

SMILES strings stand for the structures.

Turning to `[O-][n+]1onc(-c2ccccc2)c1COc1ccc(Nc2ncnc3c2cnn3-c2ccc(Br)cc2)cc1` [6e, 3-((4-((1-(4-bromophenyl)-1H-pyrazolo[3,4-d]pyrimidin-4-yl)amino)phenoxy)methyl)-4-phenyl-1,2,5-oxadiazole 2-oxide], the activity at 10 µM in experiment [1] stood at 89.1%; in [2], 94.5%; in experiment [3], 97%; in experiment [4], 117%; in experiment [5], 104%; in experiment [6], 108%. Besides, the activity at 10 µM in experiment [7] stood at 96.3%; in experiment [8], 111%; in [9] it was 106%; in [10] it was 94.9%; in experiment [11], 106%; in [12] it was 98.5%. In addition, the activity at 10 µM in experiment [13] was 101%; in [14], 98%; in [15], 108%; in experiment [16], 105%; in experiment [17] it was 95.8%; in experiment [18] it was 99.9%. Besides, the activity at 10 µM in [19] came out at 103%; in [20], 100%; in experiment [21] it was 103%; in experiment [22], 94%.
`Cc1nc(Nc2ccc(OCc3c(-c4ccccc4)no[n+]3[O-])cc2)c2c(C)nn(-c3ccccc3)c2n1` [6d, 3-((4-((3,6-dimethyl-1-phenyl-1H-pyrazolo[3,4-d]pyrimidin-4-yl)amino)phenoxy)methyl)-4-phenyl-1,2,5-oxadiazole 2-oxide]: the activity at 10 µM in experiment [1] was 89.6%; in experiment [2] it was 105%; in experiment [3], 99%; in experiment [4], 114%; in experiment [5], 109%; in experiment [6], 113%. For the same compound, the activity at 10 µM was 102% in [7]; 96.6% in experiment [8]; 107% in experiment [9]; 104% in experiment [10]; 106% in experiment [11]; 99.3% in experiment [12]. Moreover, the activity at 10 µM stood at 102% in experiment [13]; 102% in experiment [14]; 101% in experiment [15]; 107% in [16]; 102% in experiment [17]; 104% in experiment [18]. Further, the activity at 10 µM in experiment [19] was 104%; in experiment [20], 103%; in [21], 95.5%; in experiment [22], 112%.
Consider `Cc1nn(-c2ccccc2)c2nc(CNc3ccc(NCc4c(-c5ccccc5)no[n+]4[O-])cc3)[nH]c(=O)c12` [14b, 3-(((4-(((3-methyl-4-oxo-1-phenyl-4,5-dihydro-1H-pyrazolo[3,4-d]pyrimidin-6-yl)methyl)amino)phenyl)amino)methyl)-4-phenyl-1,2,5-oxadiazole 2-oxide], for which the activity at 10 µM was determined as 98.5% in experiment [1]; 91.6% in experiment [2]; 77.7% in experiment [3]; 87.6% in [4]; 85.4% in experiment [5]; 78.8% in experiment [6]. Moreover, the activity at 10 µM in experiment [7] was 83%; in [8], 97.6%; in experiment [9] it was 111%; in experiment [10], 80.6%; in experiment [11], 64.4%; in experiment [12], 75.8%. The activity at 10 µM is 86.6% in experiment [13]; 73% in [14]; 82.7% in experiment [15]; 116% in experiment [16]; 95.9% in experiment [17]; 75.5% in experiment [18]. The activity at 10 µM in experiment [19] was found to be 94.5%; in [20], 102%; in [21] it was 88.8%; in experiment [22], 97.9%.
With `Cc1nc(Nc2ccc(OCc3c(-c4ccccc4)no[n+]3[O-])cc2)c2cnn(-c3ccc(Br)cc3)c2n1` [6f, 3-((4-((1-(4-bromophenyl)-6-methyl-1H-pyrazolo[3,4-d]pyrimidin-4-yl)amino)phenoxy)methyl)-4-phenyl-1,2,5-oxadiazole 2-oxide], the activity at 10 µM turned out to be 84.8% in experiment [1]; 94.5% in [2]; 103% in experiment [3]; 114% in [4]; 113% in experiment [5]; 104% in [6]. The activity at 10 µM was found to be 91.4% in experiment [7]; 105% in experiment [8]; 104% in experiment [9]; 98.1% in [10]; 101% in [11]; 91.1% in experiment [12]. Further, the activity at 10 µM was 95.8% in experiment [13]; 87.1% in [14]; 106% in experiment [15]; 119% in [16]; 94.5% in experiment [17]; 97.2% in experiment [18]. For the same compound, the activity at 10 µM is 101% in experiment [19], 99.5% in [20], 101% in experiment [21] and 87.2% in experiment [22].
In the case of `[O-][n+]1onc(-c2ccccc2)c1COc1ccc(Nc2ncnc3c2cnn3-c2ccccc2)cc1` [6a, 4-phenyl-3-((4-((1-phenyl-1H-pyrazolo[3,4-d]pyrimidin-4-yl)amino)phenoxy)methyl)-1,2,5-oxadiazole 2-oxide], the activity at 10 µM in [1] was 103%; in [2], 114%; in experiment [3] it was 98.1%; in experiment [4], 95.9%; in experiment [5], 102%; in experiment [6] it was 91%. For the same compound, the activity at 10 µM turned out to be 98.9% in [7]; 94.3% in experiment [8]; 106% in experiment [9]; 54.2% in experiment [10]; 95% in [11]; 88% in [12]. The activity at 10 µM in experiment [13] came out at 105%; in experiment [14], 85.2%; in experiment [15] it was 97.5%; in experiment [16], 104%; in experiment [17], 95.4%; in experiment [18], 96%. Also, the activity at 10 µM in experiment [19] turned out to be 103%; in [20], 130%; in experiment [21], 105%; in [22], 103%.
As to `O=c1[nH]c(CNc2ccc(NCc3c(-c4ccccc4)no[n+]3[O-])cc2)nc2c1cnn2-c1ccccc1` [14a, 3-(((4-(((4-oxo-1-phenyl-4,5-dihydro-1H-pyrazolo[3,4-d]pyrimidin-6-yl)methyl)amino)phenyl)amino)methyl)-4-phenyl-1,2,5-oxadiazole 2-oxide], the activity at 10 µM turned out to be 60.6% in experiment [1]; 70.7% in experiment [2]; 63.3% in experiment [3]; 73.5% in [4]; 60.6% in [5]; 57.9% in [6]. The activity at 10 µM in [7] was found to be 51.3%; in experiment [8], 85.5%; in experiment [9] it was 84.4%; in [10], 71.2%; in [11], 52.5%; in experiment [12], 49.8%. Besides, the activity at 10 µM in experiment [13] turned out to be 63.4%; in [14], 45.7%; in experiment [15], 72.5%; in experiment [16], 101%; in experiment [17], 62.1%; in experiment [18] it was 42.5%. The activity at 10 µM in experiment [19] was 73.3%; in experiment [20], 94.5%; in [21] it was 70.4%; in [22], 86%.
